Data published in publication doi:10.1101/2021.09.30.462449v1 (biorxiv, 2021).

Tests used:
Experiment in all cases: biochemical
Conditions in all cases: read-out: % inhibition mean (Adapta)
LRRK2 I2020T = LRRK2 I2020T (Homo sapiens, UniProt Q5S007, I2020T)
PI4KA (PI4K alpha) = PI4KA (PI4K alpha) (Homo sapiens, UniProt P42356)
PI4K2B (PI4K2 beta) = PI4K2B (PI4K2 beta) (Homo sapiens, UniProt Q8TCG2)
PI4K2A (PI4K2 alpha) = PI4K2A (PI4K2 alpha) (Homo sapiens, UniProt Q9BTU6)
PIK3C2B (PI3K-C2 beta) = PIK3C2B (PI3K-C2 beta) (Homo sapiens, UniProt O00750)
LRRK2 = LRRK2 (Homo sapiens, UniProt Q5S007)
PIK3C3 (hVPS34) = PIK3C3 (hVPS34) (Homo sapiens, UniProt Q8NEB9)
[1] = molecular target: PIK3CA/PIK3R3 (p110 alpha/p55 gamma) (Homo sapiens, UniProt P42336)
SPHK2 = SPHK2 (Homo sapiens, UniProt Q9NRA0)
[2] = molecular target: PIK3CA/PIK3R1 (p110 alpha/p85 alpha) (Homo sapiens, UniProt P42336)
SPHK1 = SPHK1 (Homo sapiens, UniProt Q9NYA1)
CDK6/cyclin D1 = CDK6/cyclin D1 (Homo sapiens, UniProt Q00534)
CDK7/cyclin H/MNAT1 = CDK7/cyclin H/MNAT1 (Homo sapiens, UniProt P50613)
PIK3CG (p110 gamma) = PIK3CG (p110 gamma) (Homo sapiens, UniProt P48736)
CDK4/cyclin D1 = CDK4/cyclin D1 (Homo sapiens, UniProt P11802)
LRRK2 G2019S FL = LRRK2 G2019S FL (Homo sapiens, UniProt Q5S007, G2019S)
DAPK1 = DAPK1 (Homo sapiens, UniProt P53355)
IRAK1 = IRAK1 (Homo sapiens, UniProt P51617)
LRRK2 FL = LRRK2 FL (Homo sapiens, UniProt Q5S007)
Sequence of LRRK2 FL (Q5S007 whole entry): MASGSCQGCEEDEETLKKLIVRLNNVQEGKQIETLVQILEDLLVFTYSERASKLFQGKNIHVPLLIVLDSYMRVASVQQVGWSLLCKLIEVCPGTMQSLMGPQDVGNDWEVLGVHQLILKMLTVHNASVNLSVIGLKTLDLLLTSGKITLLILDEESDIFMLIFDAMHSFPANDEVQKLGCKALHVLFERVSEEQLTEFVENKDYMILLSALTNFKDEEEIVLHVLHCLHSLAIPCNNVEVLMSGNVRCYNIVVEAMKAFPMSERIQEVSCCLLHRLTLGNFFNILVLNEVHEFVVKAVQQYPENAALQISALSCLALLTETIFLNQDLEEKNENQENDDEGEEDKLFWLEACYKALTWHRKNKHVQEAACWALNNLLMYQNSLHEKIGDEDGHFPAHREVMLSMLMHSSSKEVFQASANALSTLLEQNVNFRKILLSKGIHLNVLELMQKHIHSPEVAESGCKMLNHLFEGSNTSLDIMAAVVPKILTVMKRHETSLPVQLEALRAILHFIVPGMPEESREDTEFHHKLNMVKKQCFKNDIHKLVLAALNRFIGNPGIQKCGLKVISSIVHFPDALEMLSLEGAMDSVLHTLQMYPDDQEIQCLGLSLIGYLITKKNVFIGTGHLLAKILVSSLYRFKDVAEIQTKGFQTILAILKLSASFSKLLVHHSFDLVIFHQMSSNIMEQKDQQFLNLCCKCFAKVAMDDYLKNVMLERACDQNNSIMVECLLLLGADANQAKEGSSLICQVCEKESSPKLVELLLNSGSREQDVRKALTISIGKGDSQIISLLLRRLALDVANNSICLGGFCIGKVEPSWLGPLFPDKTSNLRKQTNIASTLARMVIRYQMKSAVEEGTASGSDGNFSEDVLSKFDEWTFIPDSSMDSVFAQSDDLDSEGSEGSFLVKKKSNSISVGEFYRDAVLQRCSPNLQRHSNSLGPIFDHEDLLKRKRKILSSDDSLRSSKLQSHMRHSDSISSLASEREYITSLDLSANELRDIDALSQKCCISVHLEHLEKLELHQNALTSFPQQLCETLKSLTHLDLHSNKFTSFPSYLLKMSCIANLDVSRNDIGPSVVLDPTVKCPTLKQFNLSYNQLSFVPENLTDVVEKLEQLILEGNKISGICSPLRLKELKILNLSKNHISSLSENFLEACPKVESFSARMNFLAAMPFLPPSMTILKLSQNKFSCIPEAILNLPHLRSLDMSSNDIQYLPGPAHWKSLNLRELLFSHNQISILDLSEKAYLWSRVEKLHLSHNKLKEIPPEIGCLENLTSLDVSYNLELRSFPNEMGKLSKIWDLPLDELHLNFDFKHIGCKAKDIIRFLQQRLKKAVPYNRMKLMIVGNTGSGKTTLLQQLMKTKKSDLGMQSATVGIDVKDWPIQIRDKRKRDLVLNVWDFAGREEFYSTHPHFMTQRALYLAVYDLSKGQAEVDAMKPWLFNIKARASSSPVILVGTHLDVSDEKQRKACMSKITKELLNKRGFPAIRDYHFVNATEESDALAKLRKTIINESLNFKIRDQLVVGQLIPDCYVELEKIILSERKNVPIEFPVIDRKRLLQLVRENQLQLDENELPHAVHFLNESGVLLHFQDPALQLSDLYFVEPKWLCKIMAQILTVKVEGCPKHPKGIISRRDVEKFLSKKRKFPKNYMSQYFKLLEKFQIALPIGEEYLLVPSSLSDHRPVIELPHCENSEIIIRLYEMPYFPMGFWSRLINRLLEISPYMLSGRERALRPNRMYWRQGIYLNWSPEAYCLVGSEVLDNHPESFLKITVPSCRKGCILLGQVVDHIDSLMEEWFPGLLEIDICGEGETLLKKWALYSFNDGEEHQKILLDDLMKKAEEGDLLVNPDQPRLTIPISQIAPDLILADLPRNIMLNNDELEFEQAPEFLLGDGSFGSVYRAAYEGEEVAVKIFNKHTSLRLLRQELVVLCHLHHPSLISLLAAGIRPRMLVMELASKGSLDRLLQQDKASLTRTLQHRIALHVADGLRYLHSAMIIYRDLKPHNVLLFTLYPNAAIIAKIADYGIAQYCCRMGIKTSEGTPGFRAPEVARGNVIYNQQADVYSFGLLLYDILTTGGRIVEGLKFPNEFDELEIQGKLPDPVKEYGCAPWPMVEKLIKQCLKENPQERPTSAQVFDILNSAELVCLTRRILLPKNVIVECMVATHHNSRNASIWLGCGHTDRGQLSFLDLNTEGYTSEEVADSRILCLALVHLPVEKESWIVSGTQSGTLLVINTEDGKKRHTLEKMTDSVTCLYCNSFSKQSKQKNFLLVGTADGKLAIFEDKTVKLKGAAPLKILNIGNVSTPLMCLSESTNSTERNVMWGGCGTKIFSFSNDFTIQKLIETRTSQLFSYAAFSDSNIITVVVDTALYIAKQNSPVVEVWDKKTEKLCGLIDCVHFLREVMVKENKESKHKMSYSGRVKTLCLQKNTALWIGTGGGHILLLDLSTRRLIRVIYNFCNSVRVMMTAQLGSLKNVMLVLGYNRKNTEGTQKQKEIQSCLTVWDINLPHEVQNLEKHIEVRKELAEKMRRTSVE

Sequence of LRRK2 (Q5S007 whole entry): as above
Sequence of PIK3C2B (PI3K-C2 beta) (O00750 whole entry): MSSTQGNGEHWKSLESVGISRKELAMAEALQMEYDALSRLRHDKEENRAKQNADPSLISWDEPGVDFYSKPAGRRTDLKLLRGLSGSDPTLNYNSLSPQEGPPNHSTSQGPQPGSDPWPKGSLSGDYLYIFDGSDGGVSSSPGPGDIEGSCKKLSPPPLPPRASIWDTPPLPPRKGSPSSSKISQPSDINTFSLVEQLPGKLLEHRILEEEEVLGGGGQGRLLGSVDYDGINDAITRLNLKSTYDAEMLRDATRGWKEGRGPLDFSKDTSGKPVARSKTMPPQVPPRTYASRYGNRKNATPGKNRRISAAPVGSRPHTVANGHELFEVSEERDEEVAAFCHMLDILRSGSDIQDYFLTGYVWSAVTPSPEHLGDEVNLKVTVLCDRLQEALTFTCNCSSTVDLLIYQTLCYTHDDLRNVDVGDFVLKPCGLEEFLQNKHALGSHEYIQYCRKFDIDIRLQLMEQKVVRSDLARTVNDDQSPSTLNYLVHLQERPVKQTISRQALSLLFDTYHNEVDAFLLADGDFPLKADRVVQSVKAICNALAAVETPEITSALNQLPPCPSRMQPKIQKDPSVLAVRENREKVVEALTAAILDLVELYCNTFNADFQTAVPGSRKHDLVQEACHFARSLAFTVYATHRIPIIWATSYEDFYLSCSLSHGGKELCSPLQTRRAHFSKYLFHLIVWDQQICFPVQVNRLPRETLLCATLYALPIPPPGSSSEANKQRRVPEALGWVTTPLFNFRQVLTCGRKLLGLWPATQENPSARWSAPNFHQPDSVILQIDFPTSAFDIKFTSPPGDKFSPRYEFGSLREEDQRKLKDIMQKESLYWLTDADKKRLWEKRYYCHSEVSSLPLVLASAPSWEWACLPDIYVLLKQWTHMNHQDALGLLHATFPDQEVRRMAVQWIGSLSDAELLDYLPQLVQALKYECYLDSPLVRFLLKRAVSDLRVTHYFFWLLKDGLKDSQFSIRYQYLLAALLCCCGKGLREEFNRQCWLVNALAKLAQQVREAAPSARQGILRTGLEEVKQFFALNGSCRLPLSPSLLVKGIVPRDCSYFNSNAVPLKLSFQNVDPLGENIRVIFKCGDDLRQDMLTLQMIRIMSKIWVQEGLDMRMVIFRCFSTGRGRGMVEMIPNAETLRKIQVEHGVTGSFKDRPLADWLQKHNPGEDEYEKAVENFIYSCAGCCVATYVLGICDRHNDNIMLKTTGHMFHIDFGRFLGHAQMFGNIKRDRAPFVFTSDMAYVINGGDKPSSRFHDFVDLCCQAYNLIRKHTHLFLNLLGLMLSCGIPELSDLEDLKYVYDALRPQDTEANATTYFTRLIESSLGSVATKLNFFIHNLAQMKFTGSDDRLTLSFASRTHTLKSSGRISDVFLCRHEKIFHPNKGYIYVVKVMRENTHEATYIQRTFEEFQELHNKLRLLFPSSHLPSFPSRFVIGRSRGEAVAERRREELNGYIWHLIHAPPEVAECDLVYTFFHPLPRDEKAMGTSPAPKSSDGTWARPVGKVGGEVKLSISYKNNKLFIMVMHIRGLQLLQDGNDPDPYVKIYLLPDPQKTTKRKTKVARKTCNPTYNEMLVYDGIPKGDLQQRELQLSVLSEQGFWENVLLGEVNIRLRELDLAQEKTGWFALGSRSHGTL
Sequence of PIK3C3 (hVPS34) (Q8NEB9 whole entry): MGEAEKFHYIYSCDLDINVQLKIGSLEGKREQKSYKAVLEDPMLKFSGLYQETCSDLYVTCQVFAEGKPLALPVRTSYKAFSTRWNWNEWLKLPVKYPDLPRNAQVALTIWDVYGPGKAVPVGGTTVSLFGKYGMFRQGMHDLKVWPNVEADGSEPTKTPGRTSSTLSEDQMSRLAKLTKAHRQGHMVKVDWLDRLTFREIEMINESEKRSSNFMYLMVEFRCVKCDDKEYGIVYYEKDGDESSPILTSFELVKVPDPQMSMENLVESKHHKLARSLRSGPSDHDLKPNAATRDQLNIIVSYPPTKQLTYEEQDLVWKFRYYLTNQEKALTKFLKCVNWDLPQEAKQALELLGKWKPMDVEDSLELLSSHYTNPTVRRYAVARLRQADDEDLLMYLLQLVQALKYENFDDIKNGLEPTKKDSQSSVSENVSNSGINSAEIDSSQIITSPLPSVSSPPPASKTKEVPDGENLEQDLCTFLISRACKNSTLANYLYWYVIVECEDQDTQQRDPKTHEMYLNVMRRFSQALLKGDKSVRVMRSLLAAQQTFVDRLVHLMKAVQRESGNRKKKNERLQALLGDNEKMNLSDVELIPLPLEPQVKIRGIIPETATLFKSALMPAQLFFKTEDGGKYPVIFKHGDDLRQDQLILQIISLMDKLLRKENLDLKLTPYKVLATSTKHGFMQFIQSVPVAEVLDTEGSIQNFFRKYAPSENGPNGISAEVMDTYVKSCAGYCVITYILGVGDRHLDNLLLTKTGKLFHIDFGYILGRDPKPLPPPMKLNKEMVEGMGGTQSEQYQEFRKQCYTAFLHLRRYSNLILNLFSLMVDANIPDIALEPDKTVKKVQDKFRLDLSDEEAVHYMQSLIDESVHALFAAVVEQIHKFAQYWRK
Sequence of LRRK2 I2020T (Q5S007 whole entry I2020T): as the sequence (Q5S007 whole entry) above, with I2020T counted along it

COc1ccc2nc3cc(Cl)ccc3c(Nc3cc(CN4CCCC4)c(O)c(CN4CCCC4)c3)c2n1 [Pyronaridine, 4-[(7-Chloro-2-methoxybenzo[b][1,5]naphthyridin-10-yl)amino]-2,6-bis(1-pyrrolidinylmethyl)phenol phosphate (1:4)]
inhibition at 1 µM (LRRK2 I2020T): -15% | inhibition at 1 µM (PI4KA (PI4K alpha)): 0% | inhibition at 1 µM (PI4K2B (PI4K2 beta)): 2% | inhibition at 1 µM (PI4K2A (PI4K2 alpha)): 4% | inhibition at 1 µM (PIK3C2B (PI3K-C2 beta)): -5% | inhibition at 1 µM (LRRK2): -2% | inhibition at 1 µM (PIK3C3 (hVPS34)): -4% | inhibition at 1 µM [1]: 1% | inhibition at 1 µM (SPHK2): -5% | inhibition at 1 µM [2]: 7% | inhibition at 1 µM (SPHK1): 10% | inhibition at 1 µM (CDK6/cyclin D1): 1% | inhibition at 1 µM (CDK7/cyclin H/MNAT1): -13% | inhibition at 1 µM (PIK3CG (p110 gamma)): 2% | inhibition at 1 µM (CDK4/cyclin D1): 1% | inhibition at 1 µM (LRRK2 G2019S FL): -10% | inhibition at 1 µM (DAPK1): 11% | inhibition at 1 µM (IRAK1): -4% | inhibition at 1 µM (LRRK2 FL): -4%
